Data reported in patent publication US8227457B2, “Method for treatment of diseases” (DMI Acquisition Corp., priority 2009, dated 2012).

What was measured:
[1] = tested on: Primary human umbilical vein endothelial cells (HUVECs); test: HUVEC cell proliferation (Celltiter 96 AQueous One Solution assay); format: cell-based; conditions: 100 μM danazol, all time points
Procedure: Primary human umbilical vein endothelial cells (HUVECs) and EGM-2 growth medium were obtained from Cambrex (Walkersville, Md.). The cells were passaged in medium supplemented with 2% fetal calf serum (FCS) in tissue culture flasks at 37° C. and 5% CO2. Subculturing was performed using trypsin when 60-80% confluence was obtained as specified by the supplier.
Cryopreserved ampoules of passage 2 HUVECs were thawed and plated in 96 well tissue culture plates at 5,000 cells/cm^2. […]. In short, medium was aspirated from each well and the cells were washed with 200 μl Hepes buffered saline (HBSS) from Cambrex warmed to 37° C. 100 μl diluted celltiter solution (15 μl stock+85 μl EGM-2 containing 0.1% FCS) were added to each well and incubated for an additional 4 hours. Optical density was determined by microplate reader using a 530 nm filter after blank subtraction and data presented as OD±standard deviation. The final concentration of ethanol in the wells was less then 0.2% and had no effect on cell proliferation or viability.
All data are presented as representative experiments done in triplicate. Differences between subsets were analyzed using student t-test in Microsoft Excel. P<0.05 was considered statistically significant.
[…]. The celltiter assay is based on the reduction of the assay solution by dehydrogenase enzymes to a formazan dye that directly correlates to cell number.

[2] = tested on: human retinal endothelial cells; test: TER of retinal endothelial cell monolayers with steroid receptor antagonists and hormones, Example 10; conditions: for effect on TER compared to the control: Example 10, concentrations of Table 10
Akt = Akt phosphorylation (CASE ELISA kit for AKT S473) in retinal endothelial cells; format: cell-based, human; conditions: all of the concentrations (0.5-50.0 μM)
Procedure: The cells were grown in a 25 cm^2 flask to near confluence in EGM-2 medium (Lonza, Walkersville, Md.) containing 2% fetal calf serum (Lonza). […] The plate was incubated at 37° C. with 5% CO2 for 24 hours. […] After this incubation, the cells were fixed immediately with 4% formaldehyde, refrigerated, and the extent of phosphorylation of Akt determined using the Akt Cellular Activation of Signaling ELISA Kit (CASE™ Kit for AKT 5473; SABiosciences, Frederick, Md.) following the manufacturer's protocols. The CASE™ Kit for AKT S473 quantifies the amount of activated (phosphorylated) Akt protein relative to total Akt protein in parallel assays using a conventional ELISA format with colorimetric detection. The Akt phosphorylation site is serine 473 and is recognized by one of the antibodies used in one of the two parallel assays to provide a measure of activated Akt protein. The other antibody used in the other parallel assay recognizes Akt to provide a measure of total Akt protein. Both primary antibodies are detected using a horseradish peroxidase-labeled secondary antibody. Addition of the manufacturer's Developing Solution for 10 minutes, followed by addition of the manufacturer's Stop Solution, produces the result which can be measured colorimetrically.

[3] = tested on: human retinal endothelial cells; test: Actin stress fiber formation, Example 11, retinal cells
[4] = tested on: human renal glomerular microvascular endothelial cells; test: Actin stress fiber formation, Example 11, glomerular cells; conditions: danazol 1 μM with TNFα 1 ng/ml
[5] = tested on: human umbilical vein endothelial cells; test: Transendothelial electrical resistance (TER), Example 4, HUVEC; format: cell-based; conditions: 1 μM, umbilical vein endothelial cell monolayers
Procedure: (§1) […]. Assays were also performed in the same manner using passage 8 human brain endothelial cells and passage 8 human umbilical vein endothelial cells.
(§2) An initial TER measurement was taken for each insert using EVOM^2 voltohmmeter connected to an STX100 electrode (both from World Precision Instruments). Measurements were also taken at 24, 48, 72 and 144 hours. All data are presented as TER measurements/cm^2 of insert with TER of blank inserts subtracted.

[6] = tested on: human retinal endothelial cells; test: Transendothelial electrical resistance (TER), Example 4, retinal cells; format: cell-based; conditions: 1 μM, retinal endothelial cell monolayers
Procedure: as §1, §2

VE-Cadherin = test: VE-cadherin phosphorylation (immunoprecipitation, Pro-Q diamond / SYPRO ruby densitometry); format: cell-based, human; conditions: danazol 0.1 μM, VEGF 50 ng/ml
Procedure: The plates were immediately treated to lyse the cells as follows. PBS and the lysis buffer (PBS containing 1% Triton X-100 supplemented with phosphatase inhibitor solutions 1 and 2 (Sigma), protease inhibitor (Sigma) and sodium orthovanadate at a final concentration of 2 mM) were cooled to 4° C. The cells were washed two times with 5 ml of the ice cold PBS and then lysed in 500 μl of the ice cold lysis buffer. The resulting protein extracts were transferred to 1.7 ml microcentrifuge tubes, and cell debris was removed by spinning at 4° C. at 10,000 rpm for 10 minutes. Then, 450 μl of the cleared solution was transferred to tubes containing 25 μl of Protein Dynabeads (Invitrogen) coated with 10 μl C19 anti-VE cadherin polyclonal antibody (Santa Cruz Biotechnology) (coating performed following manufacturer's protocol). The extracts and beads were then incubated overnight at 4° C. on an orbital shaker to capture VE cadherin from the extracts. The beads were then washed four times with ice cold lysis buffer. To release the protein from the beads, they were heated for 10 minutes at 75° C. in SDS loading dye containing 20% reducing dye (Invitrogen).
The released proteins were separated in 4-20% polyacrylamide gels (Invitrogen) at 120 volts for 1 hour. To determine phosphorylation and total protein in the gels, Pro-Q diamond (Invitrogen) and SYPRO ruby (Invitrogen) protein staining were sequentially performed following the manufacturer's protocol. The gels were photographed and densitometry performed using a Kodak imaging station.

[7] = tested on: human retinal endothelial cells; test: Actin stress fiber formation (rhodamine-phalloidin F-actin staining), VEGF, Example 8; format: cell-based; conditions: for effect on VEGF-induced stress fiber pattern: then VEGF 25 ng/ml 30 minutes
Procedure: . […] To counter-stain for nuclei, 100 μl of a 3 μM DAPI (4,6-diamidino-2-phenylindole, dilactate (Invitrogen)) solution was added to each well. After 5 minutes, the cells were washed two times with 100 μl PBS.

[8] = tested on: human renal glomerular microvascular endothelial cells; test: ECIS, Example 12, glomerular cells; conditions: danazol 1 μM, S1P 1 μM
[9] = tested on: human brain endothelial cells; test: Transendothelial electrical resistance (TER), Example 4, brain cells; format: cell-based; conditions: 1 μM, brain endothelial cell monolayers, except at the earliest time point
Procedure: as §1, §2

HUVECs [10] = test: HUVEC invasion (BioCoat Matrigel Invasion Chambers); format: cell-based, human; conditions: 10 μM and 100 μM, 24 hours
Procedure: BioCoat Matrigel Invasion Chambers were purchased from BD Biosciences (San Jose, Calif.). Inserts were rehydrated at 37° C. with 500 μl HBSS for 2 hours prior to use in humidified incubator. Trypsinized HUVECs were washed twice with warm EGM-2 containing 0.1% FCS and added to the upper chamber of the invasion insert at 100,000 cells in a total volume of 250 μl. […]. Non-invasive cells were removed from the upper chamber with moistened cotton swabs and then the inserts were washed twice with HBSS. The inserts were then submerged in 10 μM calcein AM prepared in HBSS and incubated for 4 hours. Fluorescence was determined in a microplate reader at 485 nm excitation and 595 nm emission.
All data is presented as representative experiment done in triplicate. Differences between subsets were analyzed using student t-test in Microsoft Excel. P<0.05 was considered statistically significant.

[11] = tested on: human retinal endothelial cells; test: TER of retinal endothelial cell monolayers with steroid receptor antagonists, Example 6; conditions: for effect on TER compared to the control: 0.1 μM, Example 6
HUVECs [12] = test: HUVEC tube formation assay on matrigel plugs; format: cell-based, human; conditions: 18 hours, 5% FCS
Procedure: To investigate the formation of capillary-like structures by HUVECs, the Angiogenesis System: Endothelial Cell Tube Formation Assay was purchased from BD Biosciences (San Jose, Calif.) and used according to the manufacturer's protocol. In brief, 100,000 HUVECs were seeded onto rehydrated matrigel plugs in 96 well tissue culture plates in the presence of 5% FCS to induce tube formation.
Endothelial cells when cultured in the presence of angiogenic substances and supplied with an extracellular matrix scaffold will differentiate into structures loosely resembling capillary vessels.

[13] = tested on: human retinal endothelial cells; test: Actin stress fiber formation (rhodamine-phalloidin F-actin staining), TNFα, Example 7; conditions: 30 minutes
HUVECs [14] = test: HUVEC scratch migration assay; format: cell-based, human; conditions: 50 μM, 75 μM and 100 μM
Procedure: Passage 8 HUVECs, lot number 8750 (obtained from Lonza), were plated in 6-well plates (ICS BioExpress) in endothelial growth medium-2 (EGM-2) complete medium (obtained from Lonza). […] The monolayers were then “scratched” with a 1000 μl pipet tip and washed two times with warm EGM-2 medium. […] The wells were photographed again. The gaps were measured in each photograph using Adobe Photoshop software, and gap measurements are presented as the number of pixels in the gap.

[15] = tested on: human retinal endothelial cells; test: ECIS (electric cell-substrate impedance sensing), Example 12, retinal cells
[16] = 0.1 μM hydroxyflutamide followed by 0.1 μM danazol

C#C[C@]1(O)CC[C@H]2[C@@H]3CCC4=Cc5oncc5C[C@]4(C)[C@H]3CC[C@@]21C [Danazol, 17α-pregna-2,4-dien-20-yno[2,3-d]isoxazol-17β-ol]
effect on cell proliferation [1]: complete arrest of cell proliferation
effect on the TER reduction caused by hydroxyflutamide [2, 16]: prevented the reduction caused by hydroxyflutamide
effect on TER compared to the control [2]: increased the TER measurements
effect on Akt phosphorylation (Akt): caused an increase in Akt phosphorylation
effect on S1P-induced cortical actin rings ([3]; danazol 1 μM with S1P 1 μM, at 3 hours): seemed to enhance the cortical rings
effect on TNFα-induced stress fibers ([3]; danazol 1 μM with TNFα 1 ng/ml): decreased the stress fiber formation and/or the thickness of the fibers at all times
effect on TNFα-induced stress fibers [4]: decreased the stress fiber formation and the thickness of the fibers at all times
effect on TER [5]: enhanced TER measurements
effect on TER [6]: enhanced TER measurements
effect on VE-cadherin phosphorylation (VE-Cadherin): caused an increase in VE-cadherin phosphorylation
effect on VEGF-induced stress fiber pattern ([7]; 0.1 μM danazol 30 minutes): made the stress fibers less pronounced and some diffuse staining appeared
F-actin staining pattern ([7]; 0.1 μM danazol alone): diffuse F-actin staining throughout the cytoplasm
effect on VEGF-induced stress fiber pattern ([7]; 1.0 μM danazol 30 minutes): fewer thick stress fibers, but focal points were seen on contact surfaces
F-actin staining pattern ([7]; 1.0 μM danazol alone): the diffuse staining persisted, but stress fibers and focal points around the perimeter of most cells were visible
effect on VEGF-induced stress fiber pattern ([7]; 10.0 μM danazol 30 minutes): strong stress fiber development with focal points
F-actin staining pattern ([7]; 10.0 μM danazol alone): no longer any diffuse staining, and stress fiber development and focal points were seen
time after treatment until which there was no effect on ECIS [8]: about 30 hours
effect on TER [9]: did not appear to have much effect
effect on FCS-induced cell invasion (HUVECs [10]): no effect
effect on the TER reduction caused by hydroxyflutamide [11, 16]: prevented the reduction caused by hydroxyflutamide
effect on TER compared to the control [11]: increased the TER measurements
effect on tube formation (HUVECs [12]; 1 μM or 10 μM): no effect on tube formation
effect on tube formation (HUVECs [12]; 50 μM): effective inhibitor of tube formation
F-actin staining pattern ([13]; 0.1 μM danazol): diffuse staining throughout the cytoplasm
F-actin staining pattern ([13]; 10.0 μM danazol): stress fibers with multiple focal points
effect on TNFα-induced stress fiber development ([13]; TNFα 50 ng/ml, danazol 0.1 μM or 10 μM, LY294002 10 μM): decreased the number of cells exhibiting stress fiber development
effect on HUVEC migration (HUVECs [14]): significantly inhibit HUVEC migration

C[C@]12CC[C@@H]3c4ccc(O)cc4C[C@@H](CCCCCCCCC[S+]([O-])CCCC(F)(F)C(F)(F)F)[C@H]3[C@@H]1CC[C@@H]2O (stereo partly drawn) [Fluvestrant, fluvestrant]
effect on TER compared to the control [2]: essentially no effect
effect on TER compared to the control [11]: increased the TER measurements

CC(C)(O)C(=O)Nc1ccc([N+](=O)[O-])c(C(F)(F)F)c1 [Hydroxyflutamide, hydroxyflutamide]
effect on TER compared to the control [2]: reduced the readings
effect on TER compared to the control [11]: reduced the readings

CCCCCCCCCCCCC/C=C/[C@@H](O)[C@@H](N)COP(=O)(O)O [S1P, sphingosine-1 phosphate]
start of increase of ECIS as compared to untreated cells, after treatment ([15]; S1P 1 μM alone): ≤ 15 min
persistence of increase of ECIS ([15]; danazol 1.0 μM, S1P 1 μM): about 3 hours
time after treatment until which there was no effect on ECIS [8]: about 30 hours

C[C@]12CC[C@H]3[C@@H](CCC4=CC(=O)CC[C@@]43C)[C@@H]1CC[C@@H]2O [Testosterone, testosterone]
effect on TER compared to the control [2]: reduced the readings very slightly

TNFα
F-actin staining pattern ([13]; TNFα 50 ng/ml alone): strong stress fiber development with intensely staining focal points

VEGF
effect on VE-cadherin phosphorylation (VE-Cadherin): caused an even greater increase in VE-cadherin phosphorylation
Relative intensity - SYPRO results (total protein) (VE-Cadherin; Nil (ethanol control) 1.00): 0.84
F-actin staining pattern ([7]; VEGF 25 ng/ml alone, 30 minutes): strong stress fiber development
